# Assay results published in US12595226B2, “Carbonate containing lipid compounds and compositions for intracellular delivery of therapeutic agents” (ModernaTX, Inc., priority 2019, dated 2026).
# Experiment: Residual lipid levels in the liver of mice after LNP administration
# Assay type: in vivo, CD-1 mice
# Conditions: calculation assumes a 25 g mouse with a 1.5 g liver, >95% equals very slowly metabolism of the lipid
row,Approx. Percent Total Dose of Parent Lipid Remaining at 24 h [%],SMILES
1,2,"CCCCCCCCCOC(=O)OCCCCCCN(CCO)CCCCCCCC(=O)OC(CCCCCCCC)CCCCCCCC [Compound 6, Heptadecan-9-yl 8-((2-hydroxyethyl)(6-(((nonyloxy)carbonyl)oxy)hexyl)amino)octanoate]"
2,51,"CCCCCCCCC(CCCCCCCC)OC(=O)CCCCCCCN(CCO)CCCCCCOC(=O)OCCC(CCCCC)CCCCC [Compound 64, Heptadecan-9-yl 8-((2-hydroxyethyl)(6-((((3-pentyloctyl)oxy)carbonyl)oxy)hexyl)amino)octanoate]"
3,>95,"CCCCCCCCC(CCCCCCCC)OC(=O)CCCCCCCN(CCCCCCOC(=O)OCCC(CCCCCC)CCCCCC)CCCNc1c(NC)c(=O)c1=O [Compound 65, Heptadecan-9-yl 8-((6-((((3-hexylnonyl)oxy)carbonyl)oxy)hexyl)(3-((2-(methylamino)-3,4-dioxocyclobut-1-en-1-yl)amino)propyl)amino)octanoate]"
4,48,"CCCCCCCCC(CCCCCCCC)OC(=O)CCCCCCCN(CCO)CCCCCCOC(=O)OCCC(CCCCCC)CCCCCC [Compound 66, Heptadecan-9-yl 8-((6-((((3-hexylnonyl)oxy)carbonyl)oxy)hexyl)(2-hydroxyethyl)amino)octanoate]"
5,>95,"CCCCCCCCC(CCCCCCCC)OC(=O)CCCCCCCN(CCCCCCOC(=O)OCCC(CCCCC)CCCCC)CCCNc1c(NC)c(=O)c1=O [Compound 67, Heptadecan-9-yl 8-((3-((2-(methylamino)-3,4-dioxocyclobut-1-en-1-yl)amino)propyl)(6-((((3-pentyloctyl)oxy)carbonyl)oxy)hexyl)amino)octanoate]"
